These molecules were tested against D(3) dopamine receptor (Homo sapiens) (assay: Effective concentration for Dopamine receptor D3 was determined).

| EC50 | SMILES |
| --- | --- |
| 1.2 nM | COc1ccccc1N1CCN(CCCCNC(=O)c2ccc(I)cc2)CC1 |

The molecules below were run against D(3) dopamine receptor (Homo sapiens, UniProt P35462) (assay: biochemical).
Chain of D(3) dopamine receptor (P35462 whole entry): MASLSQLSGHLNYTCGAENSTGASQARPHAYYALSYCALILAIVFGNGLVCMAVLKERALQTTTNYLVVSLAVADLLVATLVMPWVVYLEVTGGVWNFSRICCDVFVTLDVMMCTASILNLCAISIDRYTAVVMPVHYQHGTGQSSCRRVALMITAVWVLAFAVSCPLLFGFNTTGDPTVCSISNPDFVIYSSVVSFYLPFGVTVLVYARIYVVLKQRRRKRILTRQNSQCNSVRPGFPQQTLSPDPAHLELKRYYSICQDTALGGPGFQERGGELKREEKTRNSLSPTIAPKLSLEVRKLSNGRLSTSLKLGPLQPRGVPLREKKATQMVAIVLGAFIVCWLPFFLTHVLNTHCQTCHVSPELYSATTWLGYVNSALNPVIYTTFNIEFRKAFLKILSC
Description: Binding affinity for human dopamine receptor D3 by displacing [125I]iodosulpiride expressed in CHO cells

| Ki | SMILES |
| --- | --- |
| 2.14 nM | COc1ccccc1N1CCN(CCCCNC(=O)/C=C/c2ccc(C(F)(F)F)cc2)CC1 |
| 4.1 nM | COc1ccccc1N1CCN(CCCCNC(=O)/C=C/c2cccc(C(F)(F)F)c2)CC1 |
| 14.9 nM | COc1ccccc1N1CCN(CCCCNC(=O)/C=C/c2cc(I)c(OC)c(OC)c2)CC1 |
| 1 nM | COc1ccccc1N1CCN(CCCCNC(=O)/C=C/c2ccc3c(c2)OCO3)CC1 |
| 108 nM | COc1ccccc1N1CCN(CCCNC(=O)Cc2cccc3ccccc23)CC1 |
| 10.2 nM | COc1ccccc1N1CCN(CCCCNC(=O)/C=C/c2ccc(C(C)(C)C)cc2)CC1 |
| 0.56 nM | COc1ccccc1/C=C/C(=O)NCCCCN1CCN(c2ccccc2OC)CC1 |
| 560 nM | COc1ccccc1N1CCN(CCCN2C(=O)c3ccccc3C2=O)CC1 |
| 2.96 nM | COc1ccccc1N1CCN(CCCCNC(=O)c2cccc3c2-c2ccccc2C3=O)CC1 |
| 38 nM | COc1ccccc1N1CCN(CCCCN2C(=O)c3ccccc3C2=O)CC1 |
| 0.38 nM | COc1ccc(/C=C/C(=O)NCCCCN2CCN(c3ccccc3OC)CC2)cc1 |
| 0.75 nM | COc1ccccc1N1CCN(CCCCNC(=O)/C=C/c2ccccc2I)CC1 |
| 0.5 nM | COc1ccccc1N1CCN(CCCCNC(=O)c2ccc(Cl)cc2)CC1 |
| 396 nM | COc1ccccc1N1CCN(CCCNC(=O)c2ccc(I)cc2)CC1 |
| 100 nM | COc1ccccc1N1CCN(Cc2cccc(CNC(=O)c3ccc4ccccc4c3)c2)CC1 |
| 0.46 nM | COc1ccccc1N1CCN(CCCCNC(=O)/C=C/c2ccc(C#N)cc2)CC1 |
| 42 nM | COc1ccccc1N1CCN(CCCCNC(=O)C2(c3ccc(Cl)cc3)CCCC2)CC1 |
| 2.85 nM | COc1ccccc1N1CCN(CCCCNC(=O)c2ccc(-c3ccccc3)cc2)CC1 |
| 37.2 nM | COc1ccccc1N1CCN(C2CC3CC(NC(=O)c4ccc5ccccc5c4)CC3C2)CC1 (stereo unspecified) |
| 0.73 nM | COc1ccccc1N1CCN(CCCCNC(=O)/C=C/c2ccc(C=O)cc2)CC1 |
| 750 nM | COc1ccccc1N1CCN(Cc2ccccc2CNC(=O)c2ccc3ccccc3c2)CC1 |
| 0.5 nM | COc1ccccc1N1CCN(CCCCNC(=O)/C=C/c2ccc(I)cc2)CC1 |
| 3.6 nM | COc1ccccc1N1CCN(CCCCNC(=O)/C=C/c2ccc(/C=C/C(=O)NCCCCN3CCN(c4ccccc4OC)CC3)cc2)CC1 |
| 262 nM | COc1ccc2cc([C@H](C)C(=O)NCCCN3CCN(c4ccccc4OC)CC3)ccc2c1 |
| 3.9 nM | COc1ccccc1N1CCN(CCCCNC(=O)c2ccc(I)cc2)CC1 |

| SMILES | Ki |
| --- | --- |
| COc1ccccc1N1CCN(CCCCN2C(=O)c3cccc4cccc(c34)C2=O)CC1 | 29 nM |
| COc1ccccc1N1CCN(CCCCNC(=O)/C=C/c2ccc(OCc3ccccc3)cc2)CC1 | 19.5 nM |
| COc1ccccc1N1CCN(CCCCNC(=O)C2CC2c2ccccc2)CC1 (stereo unspecified) | 15.5 nM |
| COc1ccccc1N1CCN(CCCCNC(=O)/C=C/c2ccccc2)CC1 | 0.33 nM |
| COc1ccccc1N1CCN(CCCCNC(=O)/C=C/c2cccc(Oc3ccccc3)c2)CC1 | 19.5 nM |
| COc1ccccc1N1CCN(CCCCNC(=O)/C=C/C=C/c2ccccc2)CC1 | 1.5 nM |
| COc1ccccc1N1CCN(CCCCNC(=O)c2ccc(C(=O)c3ccccc3)cc2)CC1 | 2.5 nM |
| COc1ccccc1N1CCN(CCCCNC(=O)c2coc3ccccc3c2=O)CC1 | 3.3 nM |
| COc1ccccc1N1CCN(CCCCNC(=O)/C=C/c2ccco2)CC1 | 0.6 nM |
| COc1ccccc1N1CCN(CCCCNC(=O)c2ccc(-c3ccc(Cl)cc3)o2)CC1 | 6.3 nM |

These molecules were tested against D(2) dopamine receptor (Homo sapiens, UniProt P14416) (assay: biochemical).
Chain of D(2) dopamine receptor (P14416 whole entry): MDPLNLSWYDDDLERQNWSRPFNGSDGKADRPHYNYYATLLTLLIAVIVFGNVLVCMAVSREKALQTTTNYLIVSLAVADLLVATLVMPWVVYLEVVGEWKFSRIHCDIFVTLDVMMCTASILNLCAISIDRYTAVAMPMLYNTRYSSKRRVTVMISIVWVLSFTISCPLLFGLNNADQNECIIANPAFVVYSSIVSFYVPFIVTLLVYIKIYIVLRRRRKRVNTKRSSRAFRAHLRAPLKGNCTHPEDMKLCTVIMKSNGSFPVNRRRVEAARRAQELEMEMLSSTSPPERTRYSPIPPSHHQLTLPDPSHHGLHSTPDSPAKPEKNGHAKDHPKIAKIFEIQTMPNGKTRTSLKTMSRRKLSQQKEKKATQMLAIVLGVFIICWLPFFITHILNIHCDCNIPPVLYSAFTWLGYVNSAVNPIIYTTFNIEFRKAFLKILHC
Description: Binding affinity for human dopamine receptor D2 by displacing [125I]iodosulpiride expressed in CHO cells

| Ki | SMILES |
| --- | --- |
| 36.8 nM | COc1ccccc1N1CCN(CCCCNC(=O)/C=C/c2ccc(C(F)(F)F)cc2)CC1 |
| 50.2 nM | COc1ccccc1N1CCN(CCCCNC(=O)/C=C/c2cccc(C(F)(F)F)c2)CC1 |
| 38.5 nM | COc1ccccc1N1CCN(CCCCNC(=O)/C=C/c2cc(I)c(OC)c(OC)c2)CC1 |
| 10.3 nM | COc1ccccc1N1CCN(CCCCNC(=O)/C=C/c2ccc3c(c2)OCO3)CC1 |
| 44 nM | COc1ccccc1N1CCN(CCCNC(=O)Cc2cccc3ccccc23)CC1 |
| 128 nM | COc1ccccc1N1CCN(CCCCNC(=O)/C=C/c2ccc(C(C)(C)C)cc2)CC1 |
| 14 nM | COc1ccccc1/C=C/C(=O)NCCCCN1CCN(c2ccccc2OC)CC1 |
| 300 nM | COc1ccccc1N1CCN(CCCN2C(=O)c3ccccc3C2=O)CC1 |
| 18 nM | COc1ccccc1N1CCN(CCCCNC(=O)c2cccc3c2-c2ccccc2C3=O)CC1 |
| 50 nM | COc1ccccc1N1CCN(CCCCN2C(=O)c3ccccc3C2=O)CC1 |
| 12 nM | COc1ccc(/C=C/C(=O)NCCCCN2CCN(c3ccccc3OC)CC2)cc1 |
| 63 nM | COc1ccccc1N1CCN(CCCCNC(=O)/C=C/c2ccccc2I)CC1 |
| 19.5 nM | COc1ccccc1N1CCN(CCCCNC(=O)c2ccc(Cl)cc2)CC1 |
| 117 nM | COc1ccccc1N1CCN(CCCNC(=O)c2ccc(I)cc2)CC1 |
| 45 nM | COc1ccccc1N1CCN(Cc2cccc(CNC(=O)c3ccc4ccccc4c3)c2)CC1 |
| 10 nM | COc1ccccc1N1CCN(CCCCNC(=O)/C=C/c2ccc(C#N)cc2)CC1 |
| 56 nM | COc1ccccc1N1CCN(CCCCNC(=O)C2(c3ccc(Cl)cc3)CCCC2)CC1 |
| 178 nM | COc1ccccc1N1CCN(C2CC3CC(NC(=O)c4ccc5ccccc5c4)CC3C2)CC1 (stereo unspecified) |
| 11.5 nM | COc1ccccc1N1CCN(CCCCNC(=O)/C=C/c2ccc(C=O)cc2)CC1 |
| 28.4 nM | COc1ccccc1N1CCN(Cc2ccccc2CNC(=O)c2ccc3ccccc3c2)CC1 |
| 76.4 nM | COc1ccccc1N1CCN(CCCCNC(=O)/C=C/c2ccc(I)cc2)CC1 |
| 7.2 nM | COc1ccccc1N1CCN(CCCCNC(=O)/C=C/c2ccc(/C=C/C(=O)NCCCCN3CCN(c4ccccc4OC)CC3)cc2)CC1 |
| 94.6 nM | COc1ccc2cc([C@H](C)C(=O)NCCCN3CCN(c4ccccc4OC)CC3)ccc2c1 |
| 146 nM | COc1ccccc1N1CCN(CCCCNC(=O)c2ccc(I)cc2)CC1 |

| SMILES | Ki |
| --- | --- |
| COc1ccccc1N1CCN(CCCCN2C(=O)c3cccc4cccc(c34)C2=O)CC1 | 40 nM |
| COc1ccccc1N1CCN(CCCCNC(=O)/C=C/c2ccc(OCc3ccccc3)cc2)CC1 | 32 nM |
| COc1ccccc1N1CCN(CCCCNC(=O)C2CC2c2ccccc2)CC1 (stereo unspecified) | 81 nM |
| COc1ccccc1N1CCN(CCCCNC(=O)/C=C/c2ccccc2)CC1 | 13.5 nM |
| COc1ccccc1N1CCN(CCCCNC(=O)/C=C/c2cccc(Oc3ccccc3)c2)CC1 | 114 nM |
| COc1ccccc1N1CCN(CCCCNC(=O)/C=C/C=C/c2ccccc2)CC1 | 19 nM |
| COc1ccccc1N1CCN(CCCCNC(=O)c2ccc(C(=O)c3ccccc3)cc2)CC1 | 63 nM |
| COc1ccccc1N1CCN(CCCCNC(=O)c2coc3ccccc3c2=O)CC1 | 47 nM |
| COc1ccccc1N1CCN(CCCCNC(=O)/C=C/c2ccco2)CC1 | 11.1 nM |
| COc1ccccc1N1CCN(CCCCNC(=O)c2ccc(-c3ccc(Cl)cc3)o2)CC1 | 200 nM |

What follows are molecules tested on D(3) dopamine receptor (Homo sapiens) (assay: Intrinsic activity for Dopamine receptor D3 was determined).

| Intrinsic activity | SMILES |
| --- | --- |
| 0.5 | COc1ccccc1N1CCN(CCCCNC(=O)c2ccc(I)cc2)CC1 |

— ChEMBL document CHEMBL1144878, “N-(omega-(4-(2-methoxyphenyl)piperazin-1-yl)alkyl)carboxamides as dopamine D2 and D3 receptor ligands” (J Med Chem, 2003)
